Structures can show the parent of a compound that is named as a salt.

This experiment concerns SU-DHL-4 cells. The experiment is described as follows: Inhibitory effect on cell viability (Cell Counting Kit-8). The experiment is classed as cell-based. The settings on record: Homo sapiens, 72 hours culture with test compound, concentration showing 90% inhibition rate of cell viability. In a few lines:
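SU-DHL-4 cells (2000/well, RPMI1640 with 10% FBS) precultured 18-25 h, then exposed to a 9-step compound dilution series (0.1% DMSO final) for 72 h at 37° C. Viability by CCK-8 absorbance at 450 nm after 2-3 h; IC90 computed from inhibition rate relative to untreated and cell-free wells.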

What is called IC90 is the concentration needed for an effect of 90%. For the molecule `CCC(=O)N1c2ccccc2[C@H](Nc2ccc(C(=O)NCc3nnc(-c4ccc(N[C@@H]5C[C@H](C)N(C(=O)CC)c6ccccc65)cc4)o3)cc2)C[C@@H]1C` [Compound 3c, 4-{[(2S,4R)-2-Methyl-1-propionyl-1,2,3,4-tetrahydroquinolin-4-yl]amino}-N-{[5-(4-{[(2S,4R)-2-methyl-1-propionyl-1,2,3,4-tetrahydroquinolin-4-yl]amino}phenyl)-1,3,4-oxadiazol-2-yl]methyl}benzamide], it took 0.11 nM to reach the 90% level (IC90). This lies in the sub-nanomolar range.

For `CCC(=O)N1c2ccccc2[C@H](Nc2ccc(C(=O)NCc3noc(-c4ccc(N[C@@H]5C[C@H](C)N(C(=O)CC)c6ccccc65)cc4)n3)cc2)C[C@@H]1C` [Compound 3d, 4-{[(2S,4R)-2-Methyl-1-propionyl-1,2,3,4-tetrahydroquinolin-4-yl]amino}-N-{[5-(4-{[(2S,4R)-2-methyl-1-propionyl-1,2,3,4-tetrahydroquinolin-4-yl]amino}phenyl)-1,2,4-oxadiazol-3-yl]methyl}benzamide], it took 0.11 nM to reach the 90% level (IC90).

In the case of `CCC(=O)N1c2ccccc2[C@H](Nc2ccc(C(=O)N3CCn4c(-c5ccc(N[C@@H]6C[C@H](C)N(C(=O)CC)c7ccccc76)cc5)cnc4C3)cc2)C[C@@H]1C` [Compound 3e, 1-[(2S,4R)-2-Methyl-4-({4-[3-(4-{[(2S,4R)-2-methyl-1-propionyl-1,2,3,4-tetrahydroquinolin-4-yl]amino}phenyl)-5,6,7,8-tetrahydroimidazo[1,2-a]pyrazine-7-carbonyl]phenyl}amino)-3,4-dihydroquinolin-1(2H)-yl]propan-1-one], the IC90 turned out to be 0.12 nM.

Molecule `CCC(=O)N1c2ccccc2[C@H](Nc2ccc(C(=O)N3CCn4cc(-c5ccc(N[C@@H]6C[C@H](C)N(C(=O)CC)c7ccccc76)cc5)nc4C3)cc2)C[C@@H]1C` [Compound 3f, 1-[(2S,4R)-2-Methyl-4-({4-[2-(4-{[(2S,4R)-2-methyl-1-propionyl-1,2,3,4-tetrahydroquinolin-4-yl]amino}phenyl)-5,6,7,8-tetrahydroimidazo[1,2-a]pyrazine-7-carbonyl]phenyl}amino)-3,4-dihydroquinolin-1(2H)-yl]propan-1-one] had an IC90 of 0.33 nM.

Molecule `CCC(=O)N1c2ccccc2[C@H](Nc2ccc(SCCNC(=O)c3ccc(N[C@@H]4C[C@H](C)N(C(=O)CC)c5ccccc54)cc3)cc2)C[C@@H]1C` [Compound 4f, 4-{[(2S,4R)-2-Methyl-1-propionyl-1,2,3,4-tetrahydroquinolin-4-yl]amino}-N-{2-[(4-{[(2S,4R)-2-methyl-1-propionyl-1,2,3,4-tetrahydroquinolin-4-yl]amino}phenyl)thio]ethyl}benzamide] displayed a concentration for an effect of 90% (IC90) of 1.19 nM.

For the molecule `CCC(=O)N1c2ccccc2[C@H](Nc2ccc(NC(=O)c3coc(Nc4ccc(N[C@@H]5C[C@H](C)N(C(=O)CC)c6ccccc65)cc4)n3)cc2)C[C@@H]1C` [Compound 5a, N-(4-(((2S,4R)-2-Methyl-1-propionyl-1,2,3,4-tetrahydroquinolin-4-yl)amino)phenyl)-2-((4-(((2S,4R)-2-methyl-1-propionyl-1,2,3,4-tetrahydroquinolin-4-yl)amino)phenyl)amino)oxazole-4-carboxamide], the concentration for an effect of 90% (IC90) stood at 2.15 nM.

On to `CCC(=O)N1c2ccccc2[C@H](Nc2ccc(CN3CCn4cc(-c5ccc(N[C@@H]6C[C@H](C)N(C(=O)CC)c7ccccc76)cc5)nc4C3)cc2)C[C@@H]1C` [Compound 5b, 1-((2S,4R)-2-Methyl-4-((4-((2-(4-(((2S,4R)-2-methyl-1-propionyl-1,2,3,4-tetrahydroquinolin-4-yl)amino)phenyl)-5,6-dihydroimidazo[1,2-a]pyrazin-7(8H)-yl)methyl)phenyl)amino)-3,4-dihydroquinolin-1(2H)-yl)propan-1-one], for which the 90% effect concentration (IC90) came to 39.6 nM.

On to `CCC(=O)N1c2ccccc2[C@H](Nc2ccc(Cc3cnc4n3CCN(Cc3ccc(N[C@@H]5C[C@H](C)N(C(=O)CC)c6ccccc65)cc3)C4)cc2)C[C@@H]1C` [Compound 5c, 1,1′-((2S,2′S,4R,4′R)-((((5,6-Dihydroimidazo[1,2-a]pyrazine-3,7(8H)-diyl)bis(methylene))bis(4,1-phenylene))bis(azanediyl))bis(2-methyl-3,4-dihydroquinoline-4,1(2H)-diyl))bis(propan-1-one)], for which the concentration for an effect of 90% (IC90) came to 63.6 nM.

As for `CCC(=O)N1c2ccccc2[C@H](Nc2ccc(NC(=O)CNCC(=O)Nc3ccc(N[C@@H]4C[C@H](C)N(C(=O)CC)c5ccccc54)cc3)cc2)C[C@@H]1C` [Compound 5d, 2,2′-Azanediylbis(N-(4-(((2S,4R)-2-methyl-1-propionyl-1,2,3,4-tetrahydroquinolin-4-yl)amino)phenyl)acetamide)], the IC90 stood at 0.67 nM.

In turn, `CCC(=O)N1c2ccccc2[C@H](Nc2ccc(CNC3CN(C(=O)c4ccc(N[C@@H]5C[C@H](C)N(C(=O)CC)c6ccccc65)cc4)C3)cc2)C[C@@H]1C` [Compound 5e, 1-((2S,4R)-2-Methyl-4-((4-(((1-(4-(((2S,4R)-2-methyl-1-propionyl-1,2,3,4-tetrahydroquinolin-4-yl)amino)benzoyl)azetidin-3-yl)amino)methyl)phenyl)amino)-3,4-dihydroquinolin-1(2H)-yl)propan-1-one] showed a 90% effect concentration (IC90) of 5.93 nM.

`CCC(=O)N1c2ccccc2[C@H](Nc2ccc(CNCCn3cc(-c4ccc(N[C@@H]5C[C@H](C)N(C(=O)CC)c6ccccc65)cc4)cn3)cc2)C[C@@H]1C` [Compound 5f, 1-((2S,4R)-2-Methyl-4-((4-(((2-(4-(4-(((2S,4R)-2-methyl-1-propionyl-1,2,3,4-tetrahydroquinolin-4-yl)amino)phenyl)-1H-pyrazol-1-yl)ethyl)amino)methyl)phenyl)amino)-3,4-dihydroquinolin-1(2H)-yl)propan-1-one] came in with an IC90 of 24.7 nM.

Molecule `CCC(=O)N1c2ccccc2[C@H](Nc2ccc(CNCc3nnc(-c4ccc(N[C@@H]5C[C@H](C)N(C(=O)CC)c6ccccc65)cc4)o3)cc2)C[C@@H]1C` [Compound 5g, 1-((2S,4R)-2-Methyl-4-((4-((((5-(4-(((2S,4R)-2-methyl-1-propionyl-1,2,3,4-tetrahydroquinolin-4-yl)amino)phenyl)-1,3,4-oxadiazol-2-yl)methyl)amino)methyl)phenyl)amino)-3,4-dihydroquinolin-1(2H)-yl)propan-1-one] yielded an IC90 of 2.53 nM.

`CCC(=O)N1c2ccccc2[C@H](Nc2ccc(CNCc3cn(-c4ccc(N[C@@H]5C[C@H](C)N(C(=O)CC)c6ccccc65)cc4)nn3)cc2)C[C@@H]1C` [Compound 5h, 1-((2S,4R)-2-Methyl-4-((4-((((1-(4-(((2S,4R)-2-methyl-1-propionyl-1,2,3,4-tetrahydroquinolin-4-yl)amino)phenyl)-1H-1,2,3-triazol-4-yl)methyl)amino)methyl)phenyl)amino)-3,4-dihydroquinolin-1(2H)-yl)propan-1-one] yielded a concentration for an effect of 90% (IC90) of 0.12 nM. This IC90 is about 21-fold lower than that of the molecule before.

The molecule `CCC(=O)N1c2ccccc2[C@H](Nc2ccc(CNCC(=O)Nc3ccc(N[C@@H]4C[C@H](C)N(C(=O)CC)c5ccccc54)cc3)cc2)C[C@@H]1C` [Compound 5i, 2-((4-(((2S,4R)-2-Methyl-1-propionyl-1,2,3,4-tetrahydroquinolin-4-yl)amino)benzyl)amino)-N-(4-(((2S,4R)-2-methyl-1-propionyl-1,2,3,4-tetrahydroquinolin-4-yl)amino)phenyl)acetamide hydrochloride] had an IC90 of 4.49 nM. Against the preceding molecule, the IC90 is about 37-fold higher.

For the molecule `CCC(=O)N1c2ccccc2[C@H](Nc2ccc(NC(=O)CN3CC=C(c4ccc(N[C@@H]5C[C@H](C)N(C(=O)CC)c6ccccc65)cc4)CC3)cc2)C[C@@H]1C` [Compound 5k, N-(4-(((2S,4R)-2-Methyl-1-propionyl-1,2,3,4-tetrahydroquinolin-4-yl)amino)phenyl)-2-(4-(4-(((2S,4R)-2-methyl-1-propionyl-1,2,3,4-tetrahydroquinolin-4-yl)amino)phenyl)-3,6-dihydropyridin-1(2H)-yl)acetamide], the IC90 came out at 7.48 nM. This IC90 is about 1.7-fold higher than that of the molecule before.

`CCC(=O)N1c2ccccc2[C@H](Nc2ccc(NC(=O)CCS(=O)(=O)c3ccc(N[C@@H]4C[C@H](C)N(C(=O)CC)c5ccccc54)cc3)cc2)C[C@@H]1C` [Compound 5l, N-(4-(((2S,4R)-2-Methyl-1-propionyl-1,2,3,4-tetrahydroquinolin-4-yl)amino)phenyl)-3-((4-(((2S,4R)-2-methyl-1-propionyl-1,2,3,4-tetrahydroquinolin-4-yl)amino)phenyl)sulfonyl)propanamide] registered an IC90 of 37 nM.

`CCC(=O)N1c2ccccc2[C@H](Nc2ccc(NC(=O)CC[S+]([O-])c3ccc(N[C@@H]4C[C@H](C)N(C(=O)CC)c5ccccc54)cc3)cc2)C[C@@H]1C` (stereo partly drawn) [Compound 5m, N-(4-(((2S,4R)-2-Methyl-1-propionyl-1,2,3,4-tetrahydroquinolin-4-yl)amino)phenyl)-3-((4-(((2S,4R)-2-methyl-1-propionyl-1,2,3,4-tetrahydroquinolin-4-yl)amino)phenyl)sulfinyl)propanamide]: the 90% effect level (IC90) was put at 0.59 nM. Against the preceding molecule, the IC90 is about 63-fold lower.

In the case of `CCC(=O)N1c2ccccc2[C@H](Nc2ccc(OCCNC(=O)c3ccc(N[C@@H]4C[C@H](C)N(C(=O)CC)c5ccccc54)cc3)cc2)C[C@@H]1C` [Compound 5n, 4-(((2S,4R)-2-Methyl-1-propionyl-1,2,3,4-tetrahydroquinolin-4-yl)amino)-N-(2-(4-(((2S,4R)-2-methyl-1-propionyl-1,2,3,4-tetrahydroquinolin-4-yl)amino)phenoxy)ethyl)benzamide], the IC90 turned out to be 8.83 nM.

For the molecule `CCC(=O)N1c2ccccc2[C@H](Nc2ccc(NC(=O)COCC(=O)Nc3ccc(N[C@@H]4C[C@H](C)N(C(=O)CC)c5ccccc54)cc3)cc2)C[C@@H]1C` [Compound 5o, 2,2′-Oxybis(N-(4-(((2S,4R)-2-methyl-1-propionyl-1,2,3,4-tetrahydroquinolin-4-yl)amino)phenyl)acetamide)], the IC90 amounted to 0.14 nM.

For the molecule `CCC(=O)N1c2ccccc2[C@H](Nc2ccc(OCCCNC(=O)c3ccc(N[C@@H]4C[C@H](C)N(C(=O)CC)c5ccccc54)cc3)cc2)C[C@@H]1C` [Compound 5p, 4-(((2S,4R)-2-Methyl-1-propionyl-1,2,3,4-tetrahydroquinolin-4-yl)amino)-N-(3-(4-(((2S,4R)-2-methyl-1-propionyl-1,2,3,4-tetrahydroquinolin-4-yl)amino)phenoxy)propyl)benzamide], the IC90 came out at 2.68 nM.

For the origin of these results see patent publication US12054494B2, “Compound with anticancer activity” (KYOWA KIRIN CO., LTD., priority 2018, dated 2024).
